The values below come from publication PMC12516379, “Rotamer-Controlled Self-Immolative Linkers Enable Tunable Release of Neurosteroid Oxime Prodrugs” (ACS Medicinal Chemistry Letters, 2025).

Data set [1] is described as follows: Stability in acetate buffer pH 5.0 at room temperature via HPLC (UV). Type of data set: physicochemical. The method, boiled down: (§1)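 Progesterone prodrugs dissolved at 1 mg/mL in PBS (pH 7.03) or 10 mM acetate buffer (pH 5.0), kept at RT and reinjected over time, HPLC-UV AUC at 254 nm. Percent parent remaining; k from ln(%remaining) vs time, pseudo-first-order t1/2 = 0.693/k; duplicates averaged.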

The nature of data set [2]: Stability in PBS at room temperature via HPLC (UV). Type of data set: physicochemical. The note with it: phosphate-buffered saline (DPBS). The method, boiled down:
as §1

A short description of data set [3]: PBS stability assay at 37 °C via LC-MS/MS. Type of data set: physicochemical. The note with it: for half-life at 3 µM: pH 7.03, PBS.
Experimental: (§10) To address this, prodrug stability was further evaluated in human plasma at 37 °C using liquid chromatography–tandem mass spectrometry (LC-MS/MS). For direct comparison, a parallel screen was conducted in PBS under identical conditions (Table ). To prevent premature degradation prior to LC-MS/MS analysis, acetonitrile containing formic acid was used as a quenching solution to acidify and stabilize the prodrugs in vials. […] This limitation in detection, along with the need for a more uniform and broadly applicable assessment across all compounds, prompted us to monitor the formation of the parent oxime as an alternative readout.
(§11) Stability experiments in human plasma and PBS were performed via liquid chromatography-tandem mass spectrometry (LC-MS/MS) to determine and compare rate of cleavage of progesterone prodrugs as well as selected allopregnanolone prodrugs (3 µM) when incubated at 37 °C. All experiments were performed in duplicate and results are presented as the average of two experimental replicates.
The nature of data set [4]: Plasma stability assay at 37 °C via LC-MS/MS, human plasma.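 For all read-outs here: prodrugs at 3 µM incubated in human plasma at 37 °C, intact prodrug quantified by LC-MS/MS over time, values are means of duplicate runs.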 Type of data set: in vitro ADME. The conditions noted are these: for half-life at 3 µM: human, plasma.
Experimental: as §10, §11
Data set [5] can be described thus: Plasma stability assay via LC-MS/MS, rat plasma. Type of data set: in vitro ADME. The note with it: read-out: t1/2 in rat plasma (Table S19) (converted). As to the method: (§2) Building on our observation that rotamer control in the steric series can be modulated by enzymatic stabilization or activation, we next evaluated whether this effect was species dependent. To investigate this, we performed comparative stability studies by incubating select prodrugs (20a, 20b, 20l and 20t; Figure ) in mouse and rat plasma – two of the most commonly used preclinical species in drug development. This approach allowed us to assess the potential influence of species-specific enzymes on rotamer equilibria and, by extension, prodrug activation rates. The self-immolation profiles for the sterically tuned linker series (20a–b) reveal discernible, species-dependent differences prodrug stability. […] While the precise biochemical drivers remain unclear, this observation warrants further investigation beyond the scope of this work.
(§3) 1.2 Stability in Plasma and PBS via LCMS
(§4) Procaine (positive control) was purchased from Sigma-Aldrich. HPLC grade MeCN, MeOH, H2O, and FA were purchased from Fischer Scientific. Human plasma (cat. No. […]- […]
(§5) 0102242) were obtained from BIOIVT. DPBS 1X (no calcium, no magnesium, pH = 7.03) was purchased from Thermo Fischer Scientific. Stock solutions were prepared in 100% DMSO, and suitable dilutions of target analytes were prepared in 0.1% FA /MeCN for method development.
(§6) For PBS assay Gibco® Dulbecco’s phosphate-buffered saline (DPBS 1X, no calcium, no magnesium, pH = 7.03) was utilized. All experiments were performed in duplicate and results are presented as the average of two experimental replicates.
(§7) Procedure for Plasma Stability Assay
(§8) Test compounds and positive control (i.e. procaine) were dissolved in DMSO to make a 10 mM stock solution and subsequently diluted to 500 μM in 50% MeCN and PBS. This intermediate stock solution was prepared and added immediately prior to the start of each test compound experiment. Plasma was thawed at ambient temperature and aliquoted (663.0 μL) into 1.5 mL Eppendorf tubes. Plasma was incubated at 37 °C for 10 minutes in an incubator shaker at 150 rpm, and the reactions were initiated by addition of the test compound or positive control (4.0 µL, 3 μM). The spiked plasma samples were incubated at 37 °C. For designated time points, 75 µL aliquots were removed from the incubation mixture and immediately quenched in 150 µL of MeCN/0.1%FA with internal standard (ISTD, 2 µM d 5-7-ethoxy coumarin). […] The supernatant was transferred to an LC-MS vial and analyzed by LC/MS-MS. […]
(§9) LC–MS/MS analysis was performed using an Agilent 1260 Infinity II HPLC, coupled with an Agilent G6460 triple quadrupole mass spectrometer (Agilent Technologies, USA). All the data were acquired employing Agilent 6460 Quantitative Analysis data processing software. […]

The nature of data set [6]: Plasma stability assay via LC-MS/MS, mouse plasma. The conditions noted are these: read-out: t1/2 in mouse plasma (Table S20) (converted). Type of data set: in vitro ADME. How it is done: as §2, §3, §4, §5, §6, §7, §8, §9
Data set [7] is described as follows: Aqueous solubility by visual inspection in acetate buffer (pH 5). The conditions noted are these: sodium acetate buffer.
Experimental: For the solubility assessment, acetate buffer (pH 5) was selected as the media of choice to ensure prodrug stability during analysis.
High aqueous solubility was determined by visual inspection of 5 mg solid material in 0.5 mL
sodium acetate buffer solution. This media was selected to ensure stability of prodrugs during
dissolution in 50 mg/mL aqueous media.
A short description of data set [8]: Formation of progesterone oxime 3 from prodrugs in human plasma at 37 °C over 2 h. Type of data set: in vitro ADME. The conditions noted are these: 2 h period. As to the method: Given the greater biological relevance of plasma, we focused on quantifying the formation of progesterone and allopregnanolone oxime in human plasma at 37 °C over a 2 h period. Results for selected progesterone prodrugs are presented in Figure A–C, illustrating the broad range of plasma cleavage rates as a function of promoiety design (see Figure S13 in Supporting Information for complete data set). Complete stability data for synthesized allopregnanolone prodrugs (Figures S18–S20) are provided in the Supporting Information. Given that their trends closely paralleled the progesterone series, they were not discussed in detail in the main text. […] This unexpected result prompted further investigation using computational modeling, described in the following section. […] Higher pK a values were associated with faster and more complete oxime formation, likely due to enhanced H-bonding which could stabilize the reactive syn-conformer. […] For the heterocyclic pyrrolidine and angle-strained series (Figure C), the release rates closely matched the experimentally determined prodrug half-lives (Table ), which were shorter in human plasma than in PBS. […] Although both 20s and 20t are capable of adopting the reactive syn-rotamer, their self-immolation reactivity diverged due to differences in linker geometry. The cyclopropane in 20s induces angle strain that hinders nucleophilic attack, rendering the compound stable under both PBS and plasma conditions. […] This intriguing result warrants further investigation, with follow-up studies currently in progress. Finally, the nucleophilic capacity of the amine tethers in prodrugs 20w–20z were evaluated based on their ability to cyclize in plasma, as detailed in the Supporting Information Figure S13.
as §3, §4, §5, §6, §7
Test compounds and positive control (i.e. procaine) were dissolved in DMSO to make a 10 mM stock solution and subsequently diluted to 500 μM in 50% MeCN and PBS. […] The supernatant was transferred to an LC-MS vial and analyzed by LC/MS-MS. […]

[9] abbreviates: pH 5, acetate buffer pH 5.0, RT, 1 mg/mL, HPLC 254 nm, read-out: t1/2 in acetate buffer at RT (Tables S5-S8) (converted).
Where [10] appears, read: pH 5, acetate buffer pH 5.0, rt, HPLC (UV), read-out: Half-life (t½) pH 5.0 rt (converted).
Where [11] appears, read: pH 5, acetate buffer pH 5.0, rt, read-out: t½: pH 5.0, rt (Table S23) (converted).
Where [12] appears, read: pH 7.03, DPBS pH 7.03, RT, 1 mg/mL, HPLC 254 nm, read-out: t1/2 in PBS buffer at RT (Tables S1-S4) (converted).
Setting [13] is: pH 7.03, PBS, rt, HPLC (UV), read-out: Half-life (t½) PBS rt (converted).
Where [14] appears, read: pH 7.03, PBS, rt, read-out: t½: PBS, rt (Table S23) (converted).
The mark [15] stands for this setting: phosphate-buffered saline (DPBS), 37 °C, 3 µM, LC-MS/MS, read-out: t1/2 in PBS at 37 °C (Tables S14-S17) (converted).
Setting [16] is: phosphate-buffered saline (DPBS), 37 °C, LC-MS/MS, read-out: Half-life (t½) PBS 37°C (converted).
Setting [17] is: phosphate-buffered saline (DPBS), 37 °C, read-out: PBS, 37 °C t½ (Table S23) (converted).
The mark [18] stands for this setting: 3 µM, LC-MS/MS, read-out: t1/2 in human plasma at 37 °C (Tables S10-S13, S18) (converted).
[19] abbreviates: LC-MS/MS, read-out: Half-life (t½) Plasma 37°C (converted).
The mark [20] stands for this setting: read-out: Plasma, 37 °C t½ (Table S23) (converted).
Where [21] appears, read: pH 5, aqueous buffer, thermodynamic from solid.

Take `CNCCN(C(=O)O/N=C(\C)[C@H]1CC[C@H]2[C@@H]3CCC4=CC(=O)CC[C@]4(C)[C@H]3CC[C@]12C)C1CC1.O=C(O)C(F)(F)F` [20b]: the half-life at 1 mg/mL in data set [1] (setting [9]) is above 168 h; in data set [1] (setting [10]), above 168 h; in data set [1] (setting [11]), above 168 h; in data set [2] (setting [12]) it was 28.16 ± 0.04 h; in data set [2] (setting [13]), 28.2 h; in data set [2] (setting [14]), 28.2 h. In data set [3] (PBS, 37 °C, 2 h), the “PBS, 37 °C %rem. at 2h (Table S23)” value came to 68%. Also, the half-life at 3 µM in data set [3] (setting [15]) was 4.5 h; in data set [3] (setting [16]) it was 4.5 h; in data set [3] (setting [17]) it was 4.5 h; in data set [3] (phosphate-buffered saline (DPBS), 37 °C, read-out: t1/2 (h) PBS, 37 °C (Tables S25, S26) (converted)), 4.5 h; in data set [4] (setting [18]), 1.27 h; in data set [4] (setting [19]), 1.27 h. Further, the half-life at 3 µM was 1.27 h in data set [4] (setting [20]), 2.3 h in data set [5] and 5.4 h in data set [6]. Also, the share remaining – broadly, what is left of the initial amount, in per cent – at 2 h, 3 µM in data set [3] (phosphate-buffered saline (DPBS), pH 7.03, PBS, 37 °C, 2 h, read-out: % Remaining @ 2h, PBS, 37 °C (Tables S25, S26)) is 68%. Also, the “Plasma, 37 °C %rem. at 2h (Table S23)” value in data set [4] is reported as 31%. Moreover, the solubility – broadly, the dissolved amount per volume that the medium holds – in data set [7] (setting [21]) is above 10000 µg/mL.

As for `C/C(=N\OC(=O)N(C)C[C@@H]1CC(F)(F)CN1)[C@H]1CC[C@H]2[C@@H]3CCC4=CC(=O)CC[C@]4(C)[C@H]3CC[C@]12C` [20r], in data set [3] (PBS), the “Prodrug stability / self-immolation in buffer, in words” value was “highly stable, noncleaving prodrug”. For the same compound, the “PBS, 37 °C %rem. at 2h (Table S23)” value in data set [3] (PBS, 37 °C, 2 h) was found to be 72%. Further, the half-life at 3 µM in data set [3] (setting [15]) is 4.93 h; in data set [3] (setting [16]), 4.93 h; in data set [3] (setting [17]), 4.93 h; in data set [4] (setting [20]), above 24 h. Besides, the “t1/2 in human plasma at 37 °C (Tables S10-S13, S18)” value in data set [4] (3 µM, LC-MS/MS) is recorded as “stable”. Moreover, the “Plasma, 37 °C %rem. at 2h (Table S23)” value in data set [4] was “stable”. Also, the “Half-life (t½) Plasma 37°C” value in data set [4] (LC-MS/MS) was “stable”. Also, the “Formation/release of oxime 3 in human plasma, in words” value in data set [8] was “low levels of oxime”. The solubility in data set [7] (pH 5) is below 10000 µg/mL.

As for `C/C(=N\OC(=O)N(C)C[C@@H]1CCCN1)[C@H]1CC[C@H]2[C@@H]3CCC4=CC(=O)CC[C@]4(C)[C@H]3CC[C@]12C.O=C(O)C(F)(F)F` [20l], the half-life at 1 mg/mL in data set [1] (setting [9]) is 175 h; in data set [1] (setting [10]), 175 h; in data set [1] (setting [11]), 175 h; in data set [2] (setting [12]), 1.9 ± 0.12 h; in data set [2] (setting [13]) it was 1.9 h; in data set [2] (setting [14]), 1.9 h. Besides, in data set [3] (PBS, 37 °C, 2 h), the “PBS, 37 °C %rem. at 2h (Table S23)” value is 8%. The half-life at 3 µM in data set [3] (setting [15]) is 0.74 h; in data set [3] (setting [16]), 0.74 h; in data set [3] (setting [17]), 0.74 h; in data set [4] (setting [18]), 0.31 h; in data set [4] (setting [19]) it was 0.31 h; in data set [4] (setting [20]), 0.31 h. The half-life at 3 µM in data set [5] and in data set [6] was 0.4 h each time. Further, in data set [4], the “Plasma, 37 °C %rem. at 2h (Table S23)” value is 1%. In data set [7] (setting [21]), this compound registered a solubility above 10000 µg/mL.

Regarding `CNCCN(CCN(C)C)C(=O)O/N=C(\C)[C@H]1CC[C@H]2[C@@H]3CCC4=CC(=O)CC[C@]4(C)[C@H]3CC[C@]12C` [20g], the half-life at 1 mg/mL in data set [1] (setting [9]) was 75.8 h; in data set [1] (setting [10]) it was 75.8 h; in data set [1] (setting [11]), 75.8 h; in data set [2] (setting [12]), 2.17 ± 0.02 h; in data set [2] (setting [13]), 2.17 h; in data set [2] (setting [14]), 2.17 h. Also, the “Formation/release of oxime 3 in human plasma, in words” value in data set [8] was “rapid, first-order release”. The solubility in data set [7] (setting [21]) is below 10000 µg/mL.

As for `CNC1(CN(C)C(=O)O/N=C(\C)[C@H]2CC[C@H]3[C@@H]4CCC5=CC(=O)CC[C@]5(C)[C@H]4CC[C@]23C)CCC1` [20t], the half-life at 1 mg/mL is above 168 h in data set [1] (setting [9]); above 168 h in data set [1] (setting [10]); above 168 h in data set [1] (setting [11]); 10.5 h in data set [2] (setting [12]); 10.5 h in data set [2] (setting [13]); 10.5 h in data set [2] (setting [14]). In addition, in data set [3] (PBS, 37 °C, 2 h), the “PBS, 37 °C %rem. at 2h (Table S23)” value stood at 14%. The half-life at 3 µM in data set [3] (setting [15]) is 0.94 h; in data set [3] (setting [16]), 0.94 h; in data set [3] (setting [17]) it was 0.94 h; in data set [4] (setting [18]), 0.44 h; in data set [4] (setting [19]), 0.43 h; in data set [4] (setting [20]), 0.44 h. The half-life at 3 µM in data set [5] was 0.46 h; in data set [6], 0.34 h. The “Plasma, 37 °C %rem. at 2h (Table S23)” value in data set [4] is recorded as 4%. In addition, the solubility in data set [7] (setting [21]) is above 10000 µg/mL.
